Experimental findings from PMC6934184, “Selective DNA-PKcs inhibition extends the therapeutic index of localized radiotherapy and chemotherapy” (The Journal of Clinical Investigation, 2019) are described below.

This test deals with T1, IRAK4 (Homo sapiens, UniProt Q9NWZ3).
T1 construct: purchased Thermo Fisher Scientific (Life Technologies) SelectScreen
The test is described as follows: SelectScreen Z'LYTE. The format is biochemical. Summed up:
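Percent values come from Thermo SelectScreen profiling of NU5455, combining activity and binding assays. CSF1R was run in Z'LYTE format at Km app ATP, and CAMK1 in Adapta format with ATP listed at 10.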

Structures are written as SMILES.

T1 sequence (Q9NWZ3 whole entry): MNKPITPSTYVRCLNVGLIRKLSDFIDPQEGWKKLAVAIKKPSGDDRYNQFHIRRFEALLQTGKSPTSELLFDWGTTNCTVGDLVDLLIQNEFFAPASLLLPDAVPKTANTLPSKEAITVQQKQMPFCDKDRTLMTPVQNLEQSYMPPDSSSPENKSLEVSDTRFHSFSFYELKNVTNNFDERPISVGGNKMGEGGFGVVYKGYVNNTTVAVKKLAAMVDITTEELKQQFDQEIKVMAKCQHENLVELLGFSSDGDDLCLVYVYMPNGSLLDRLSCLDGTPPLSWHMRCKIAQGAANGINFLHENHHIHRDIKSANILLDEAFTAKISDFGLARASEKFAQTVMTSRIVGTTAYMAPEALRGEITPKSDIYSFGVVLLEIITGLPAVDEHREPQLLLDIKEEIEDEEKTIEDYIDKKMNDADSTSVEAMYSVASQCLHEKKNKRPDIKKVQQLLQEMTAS

As to `CN(C(=O)CN1CCOCC1)c1ccc2sc3c(-c4cccc5c(=O)cc(N6CC7CCC(C6)O7)oc45)cccc3c2c1` [NU5455], the inhibition at 1 µM was -20.5%.
